{"source": "patent US20260115181A1", "about": "“TRANSCRIPTION FACTOR PFAP2-O5 INHIBITOR FOR PLASMODIUM FALCIPARUM, PHARMACEUTICAL COMPOSITION, AND DRUG FOR TREATING MALARIA RESISTANT TO ARTEMISININ AND ANALOG THEREOF” (priority 2023, published 2026)", "key": {"Plasmodium falciparum": {"test_system": "Plasmodium falciparum", "experiment": "In vitro growth inhibition of Plasmodium falciparum (3-day SYBR Green I cell growth assay)", "type": "cell-based", "conditions": "wild-type Plasmodium falciparum, 72 hours, read-out: IC50 of the quantitative growth inhibitory effect on in vitro culture of Plasmodium falciparum", "protocol": "100 μL of complete culture medium was added to a 96-well plate. 200 μL of a compound stock solution with a concentration of 200 μM was added to the first well. Gradient dilution (11 concentration gradients) was performed at a 1/2 ratio according to the doubling gradient dilution. Dihydroartemisinin (DHA) was used as a positive control, complete culture medium was used as a negative control, and red blood cells without Plasmodium falciparum or compounds were used as a background control.\n100 μL of wild-type Plasmodium falciparum culture (1% parasitemia, 4% hematocrit) was accurately added to each well, so that finally, the parasitemia in each well was 0.5%, and the hematocrit was 2%. The final concentration gradients of the compound were 100 μM, 50 μM, 25 μM, 12.5 μM, 6.25 μM, 3.125 μM, 1.5625 μM, 0.78125 μM, 0.390625 µM, 0.195313 μM, and 0.097656 μM. […] After the incubation was completed, a fluorescence intensity was recorded on a microplate reader with an excitation wavelength of 485 nm and an emission wavelength of 535 nm. The inhibition rate of the small molecule inhibitor on the growth of Plasmodium falciparum was calculated based on the fluorescence intensity.\n[formula] • where Fltreated, Flbackground, and Flcontrol represent the fluorescence intensity values of the candidate small molecule drug group, the red blood cell control group, and the untreated control group, respectively. […]"}, "PfAP2-O5": {"test_system": "PfAP2-O5", "experiment": "Transcriptome sequencing (RNA-seq) analysis of effects on PfAP2-O5 target (invasion) gene expression", "type": "cell-based, Plasmodium falciparum", "conditions": "wild-type strain, 1 μM", "protocol": "Wild-type and pfap2-o5 conditional knockdown Plasmodium falciparum strains were treated with the hexahydroquinoline derivative represented by formula (I), respectively. After strict synchronization of the Plasmodium falciparum strains, 1 μM hexahydroquinoline derivative was added one life cycle in advance. After one life cycle, the ring (10-15 hours), trophozoite (28-32 hours), and schizont (40-44 hours) stage cultures of the wild-type and pfap2-o5 conditional knockdown Plasmodium falciparum strains treated with the hexahydroquinoline derivative were collected. Total RNA was purified using the Direct-zol RNA kit, strand-specific RNA sequencing libraries were then prepared using KAPA mRNA beads, and the RNA was fragmented. The libraries were sequenced on the Illumina HiSeq X Ten system, and the differential gene expression between the two Plasmodium falciparum strains after inhibitor treatment was analyzed."}, "[1]": {"test_system": "human renal epithelial cell line 293T", "experiment": "Cytotoxicity, CCK8 assay, 293T cells", "type": "cell-based", "conditions": "72 hours", "protocol": "(§1) Mammalian 293T and HepG2 cells were cultured and passaged, trypsinized, and resuspended in DMEM. The cells were counted using a hemocytometer and diluted to 10^5 cells/mL. The cell suspension was evenly added to a 96-well plate, with 100 μL per well. After the cells were subjected to attachment culture in a 37° C. incubator (5% CO2) for 24 hours, the inhibitors of the corresponding concentrations were added. Gradient dilution (11 concentration gradients) was performed at a 1/2 ratio according to the doubling gradient dilution. Complete culture medium was used as a negative control, and DMEM was used as a background control. After the culture in a 37° C. incubator (5% CO2) for 72 hours, 10 μL of CCK8 reagent was added to each well. The plate was incubated in a 37° C. incubator (5% CO2) for 1 hour. The absorbance at a 450 nm wavelength was read by a microplate reader, and a survival rate was calculated based on the absorbance.\n(§2) [formula] • where Abtreated, Abbackground, and Abcontrol represent the absorbance values of the small molecule drug group, the DMEM control group, and the untreated control group, respectively. The inhibition rate of the drug was calculated based on the survival rate at different concentrations, and the growth inhibition curve was summarized as inhibition rate-drug concentration. The IC50 was calculated using SPSS 18.0 software."}, "[2]": {"test_system": "human liver cancer cell line HepG2", "experiment": "Cytotoxicity, CCK8 assay, HepG2 cells", "type": "cell-based", "conditions": "HepG2, 72 hours", "protocol": "as §1, §2"}, "[3]": {"experiment": "Liver microsomal metabolism assay, mouse", "type": "in vitro ADME", "protocol": "(§3) In the microsomal metabolism assay, the inhibitor was incubated with liver microsomes from different species; the reaction was terminated at different time points; the remaining amount of the inhibitor in the samples at each time point was determined using LC-MS/MS. The percentage of parent drug remaining was calculated, and the hepatic intrinsic clearance CLint(liver) was finally obtained. Testosterone was used as a control in this study to verify the reliability of the experimental system. The detailed procedures were as follows: • The incubation system consisted of 0.1 M Tris-HCl buffer (pH 7.4), 1 mM MgCl2, 1 mM NADPH (Nicotinamide Adenine Dinucleotide Phosphate), and 0.5 mg/ml microsomes, and the final reaction volume was 200 μL. […] inhibitor and testosterone were pre-incubated with liver microsomes from different species in a 37° C. water bath for 5 minutes. 100 μL of NADPH was added to initiate the reaction. 400 μL of stop solution was added to terminate the reaction at time points of 0 minutes, 5 minutes, 15 minutes, 30 minutes, 45 minutes, and 60 minutes. 40 μL of internal standard was added, and the mixture was vortexed for 5 minutes and centrifuged at 20,000 g and 4° C. for 5 minutes. 100 μL of the supernatant was taken and diluted with 100 μL of water for injection and analysis. The retention time of the compound and the internal standard, chromatogram acquisition, and chromatogram integration were processed by Analyst 1.6.3 software. The compound was subjected to linear regression with a weighting coefficient of 1/X^2 to calculate the concentration at each time point. The natural logarithm of the percentage remaining at each time point was linearly regressed against the incubation time to calculate the in vitro elimination rate constant k. The half-life (T1/2) and hepatic intrinsic clearance CLint(liver) of the test article were calculated according to the following formula.\n(§4) hepatic microsomal clearance CLint(mic)=0.693/half-life/mg microsomal protein per mL; hepatic intrinsic clearance CLint(liver)=hepatic microsomal clearance×mg microsomal protein/gram of liver×liver weight-to-body weight ratio. The liver weight-to-body weight ratios of mice, rats, and humans were 88, 40, and 20 g/kg, respectively; the average value of mg microsomal protein/gram of liver in different species was 45."}, "[4]": {"experiment": "Liver microsomal metabolism assay, rat", "type": "in vitro ADME", "protocol": "as §3, §4"}, "[5]": {"experiment": "Liver microsomal metabolism assay, human", "type": "in vitro ADME", "protocol": "as §3, §4"}}}
{"smiles": "CC1=C(C(=O)Nc2cccc(C(F)(F)F)c2)C(c2cccc([N+](=O)[O-])c2)C2=C(CC(C)(C)CC2=O)N1", "note": "(centres unmarked) [hexahydroquinoline derivative]", "values": [{"measurement": "IC50", "setting": "Plasmodium falciparum", "result": 2160, "unit": "nM"}, {"measurement": "expression of PfAP2-O5 target genes after treatment", "setting": "PfAP2-O5", "result": "downregulated"}, {"measurement": "decrease of expression levels of merozoite surface structural protein family (invasion) genes (mRNA level)", "setting": "PfAP2-O5; added one life cycle in advance", "result": "more than 1.5 fold"}, {"measurement": "cytotoxicity to mammalian cells", "setting": "[1]", "result": "low cytotoxicity"}, {"measurement": "cytotoxicity to mammalian cells", "setting": "[2]", "result": "low cytotoxicity"}, {"measurement": "CLint scaled", "setting": "[3]; liver microsomes, pH 7.4, mouse, hepatic intrinsic clearance CLint(liver), scaled with 45 mg protein/g liver, 88 g/kg", "result": 176, "unit": "mL/min/kg"}, {"measurement": "clearance classification", "setting": "[3]; mouse liver microsomes", "result": "moderate-clearance compound"}, {"measurement": "k", "setting": "[3]; mouse liver microsomes 0.5 mg/ml, 1 mM NADPH, 1 M inhibitor, 37° C.", "result": 0.0222, "unit": "min⁻¹"}, {"measurement": "half-life", "setting": "[3]; pH 7.4, mouse liver microsomes 0.5 mg/ml, 1 mM NADPH, 37° C.", "result": 31.2, "unit": "min"}, {"measurement": "CLint scaled", "setting": "[4]; liver microsomes, pH 7.4, rat, hepatic intrinsic clearance CLint(liver), scaled with 45 mg protein/g liver, 40 g/kg", "result": 178, "unit": "mL/min/kg"}, {"measurement": "half-life", "setting": "[4]; pH 7.4, rat liver microsomes 0.5 mg/ml, 1 mM NADPH, 37° C.", "result": 14.1, "unit": "min"}, {"measurement": "clearance classification", "setting": "[4]; rat liver microsomes", "result": "high-clearance compound"}, {"measurement": "k", "setting": "[4]; rat liver microsomes 0.5 mg/ml, 1 mM NADPH, 1 M inhibitor, 37° C.", "result": 0.0493, "unit": "min⁻¹"}, {"measurement": "clearance classification", "setting": "[5]; human liver microsomes", "result": "moderate-clearance compound"}, {"measurement": "k", "setting": "[5]; human liver microsomes 0.5 mg/ml, 1 mM NADPH, 1 M inhibitor, 37° C.", "result": 0.0124, "unit": "min⁻¹"}, {"measurement": "CLint scaled", "setting": "[5]; liver microsomes, pH 7.4, human, hepatic intrinsic clearance CLint(liver), scaled with 45 mg protein/g liver, 20 g/kg", "result": 22.3, "unit": "mL/min/kg"}, {"measurement": "half-life", "setting": "[5]; pH 7.4, human liver microsomes 0.5 mg/ml, 1 mM NADPH, 37° C.", "result": 55.9, "unit": "min"}]}
